# Measurements reported in patent publication US20230114728A1 (Venatorx Pharmaceuticals, Inc., priority 2019, published 2023).
# Columns and labels:
# E. coli 901C = test: Broth microdilution MIC in CAMHB; type: cell-based; conditions: Escherichia coli; MHB; hyper-permeable E. coli 901C; read-out: Minimum Inhibitory Concentration, E. coli 901C
# Outline: (§1)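 MIC, read by eye, is the lowest compound concentration giving no bacterial growth after 16-20 h at 37° C. Test compounds are serially diluted 2-fold in CAMHB and seeded with 2-8×10^5 CFU/mL of bacteria taken from a 3-5 h shaking culture, following CLSI methods.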
# [1] = tested on: K. pneumoniae UMM producing SHV-5 and KPC-2; test: Broth microdilution MIC in CAMHB; type: cell-based; conditions: Klebsiella pneumoniae, read-out: Minimum Inhibitory Concentration, K. pneumoniae UMM
# Outline: as §1
# E. coli D22 = test: Broth microdilution MIC in CAMHB; type: cell-based; conditions: Escherichia coli; MHB; hyper-permeable E. coli D22; read-out: Minimum Inhibitory Concentration, E. coli D22
# Outline: as §1
# P. aeruginosa ATCC 27853 = test: Broth microdilution MIC in CAMHB; type: cell-based; conditions: Pseudomonas aeruginosa, ATCC27853; MHB; read-out: Minimum Inhibitory Concentration, P. aeruginosa ATCC 27853
# Outline: as §1
# [2] = tested on: P. aeruginosa (ΔmexAB-oprM); test: Broth microdilution MIC in CAMHB; type: cell-based; conditions: Pseudomonas aeruginosa, read-out: Minimum Inhibitory Concentration, P. aeruginosa ΔmexAB-OprM
# Outline: as §1
# P. aeruginosa ATCC 35151 = test: Broth microdilution MIC in CAMHB; type: cell-based; conditions: Pseudomonas aeruginosa, ATCC35151; MHB; hyper-permeable strain; read-out: Minimum Inhibitory Concentration, P. aeruginosa ATCC 35151
# Outline: as §1
# E. coli ATCC 25922 = test: Broth microdilution MIC in CAMHB; type: cell-based; conditions: Escherichia coli, ATCC25922; MHB; E. coli ATCC 25922; read-out: Minimum Inhibitory Concentration, E. coli 25922
# Outline: as §1
# A. baumannii ATCC 19606 = test: Broth microdilution MIC in CAMHB; type: cell-based; conditions: Acinetobacter baumannii, ATCC19606; MHB; read-out: Minimum Inhibitory Concentration, A. baumannii ATCC 19606
# Outline: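 CLSI broth microdilution in CAMHB: 2-fold compound dilutions inoculated at 2-8×10^5 CFU/mL from 3-5 h log-phase cultures. Incubated at 37 °C for 16-20 h (Enterobacteriaceae, Pseudomonas); MIC read visually as lowest concentration without growth. Strains include hyper-permeable and efflux-deficient mutants.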
# E. coli AG100A = test: Broth microdilution MIC in CAMHB; type: cell-based; conditions: Escherichia coli, read-out: Minimum Inhibitory Concentration, E. coli AG100A
# Outline: as §1
# [3] = tested on: K. pneumoniae 848844 producing SHV-11 and KPC-2; test: Broth microdilution MIC in CAMHB; type: cell-based; conditions: Klebsiella pneumoniae, read-out: Minimum Inhibitory Concentration, K. pneumoniae 848844
# Outline: as §1
# [4] = tested on: K. pneumoniae SI-117 producing VIM-1; test: Broth microdilution MIC in CAMHB; type: cell-based; conditions: Klebsiella pneumoniae, read-out: Minimum Inhibitory Concentration, K. pneumoniae SI-117
# Outline: as §1
# E. coli AG100 = test: Broth microdilution MIC in CAMHB; type: cell-based; conditions: Escherichia coli; MHB; wild-type parent strain E. coli AG100; read-out: Minimum Inhibitory Concentration, E. coli AG100
# Outline: as §1
# E. coli K12 PBP3 = biological target: T1, E. coli K12 PBP3 (Escherichia coli, UniProt P0AD68); test: biochemical; type: binding
# T1 construct: made in house
# Excerpt: Example I: Experimental Method for Penicillin-Binding Protein Binding Assays with Bocillin-FL Via Fluorescence Polarization
# To determine the ability of boronic acid-based test PBP inhibitors to bind Penicillin Binding Proteins (PBPs), Bocillin-FL (fluorescently-labeled penicillin V; ThermoFisher Scientific) was used in a fluorescence polarization (FP) competition binding assay to assess inhibitor binding to PBP2, PBP3 or PBP4 from Escherichia coli (K12), PBP3 from Pseudomonas aeruginosa (PA01), PBP1a, PBP2 and PBP3 from Acinetobacter baumannii (ATCC 19606), and PBP2 from Neiserria gonorrheae (FA19). PBPs were cloned and purified as described previously (E. coli PBPs, King, D. T, et al., ACS Infectious Diseases 2015, 1, 175-184; P. aeruginosa PBP3, Han et. al., PNAS 2010, 107 (51), 22002-22007; A. baumannii PBPs, Penwell et. al., Antimicrob. Agents Chemother. 2015, 59 (3), 1680-1689; N. gonorrhoeae PBP2, Singh et. al., J Biol. Chem. 2019, 294 (38), 14020-14032). To establish assay conditions for competition binding, enzyme titration/saturation binding experiments were initially performed. Bocillin-FL was prepared at 0.2 μM in a buffer comprised of 50 mM Hepes (pH 8.0), 300 mM NaCl and 5% (v/v) glycerol for reactions with E. coli, P. aeruginosa and N. gonorrhoeae PBPs, and 25 mM Tris (pH 8.0), 200 mM NaCl and 10% (v/v) glycerol and 0.005% (v/v) Tween 20 for reactions with A. baumannii PBPs. Saturation binding was performed by mixing 40 μl of PBP solutions ranging in concentrations from 0-24 μM with 40 μl of the 0.2 μM Bocillin-FL solution, in individual wells of a black 384-well microplate. FP was measured immediately upon mixing (Excitation, 490 nm; Emission, 520 nm; g-factor, 0.96), using a Cytation3 (BioTek) microplate reader and measured continuously for up to 120 minutes. […] The competition binding assay (80 μl final volume) was validated using beta-lactams and PBPs at final concentrations of: 1.5 μM, E. coli PBP3; 0.75 μM, P. aeruginosa PBP3; 1 μM A. baumannii PBP1a; 2.5 μM A. baumannii PBP2; 0.2 μM A. baumannii PBP3; and […] N. gonorrhoeae PBP2. Bocillin-FL was at 0.1 μM (0.05 μM with A. baumannii PBP1a) and beta-lactam concentrations ranged from 0-1000 μM. […] Bocillin-FL was added and the FP immediately measured for up to 60 minutes (90 minutes for E. coli PBP2). […] The beta-lactam potency was reported as the concentration of beta-lactam required to reduce the amount of PBP bound-Bocillin-FL by 50% (EC50). […] Binding assays for boronic acid PBP inhibitors were performed in an identical fashion for the respective PBPs
# P. aeruginosa PBP3 = biological target: T2, P. aeruginosa PBP3 (Pseudomonas aeruginosa, UniProt G3XD46); test: Bocillin-FL fluorescence polarization competition binding assay, P. aeruginosa PBP3; conditions: fluorescence polarization competition binding assay using Bocillin-FL
# T2 construct: made in house
# Outline: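 Binding of boronic acid inhibitors to purified Pseudomonas aeruginosa (PA01) PBP3 was measured by fluorescence polarization competition with Bocillin-FL, a fluorescent penicillin V. Reactions of 80 μl contained 0.75 μM PBP3 and 0.1 μM Bocillin-FL in 50 mM Hepes (pH 8.0), 300 mM NaCl and 5% (v/v) glycerol, in black 384-well plates. FP (Excitation 490 nm, Emission 520 nm) was read for up to 60 minutes. EC50 is the concentration that halves PBP-bound Bocillin-FL.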
# [5] = tested on: N. gonorrhoeae ATCC 49226; test: Liquid broth MIC in Fastidious broth; type: cell-based; conditions: Neisseria gonorrhoeae, ATCC49226; N. gonorrhoeae strain ATCC 49226; Fastidious broth; read-out: Minimum Inhibitory Concentration, N. gonorrhoeae ATCC 49226
# Method: (§2) Example V: In Vitro Antibacterial Assays for N. gonorrhoeae Strains
# (§3) Additional antibacterial testing of the series was performed in 8 reference strains of N. gonorrhoeae (ATCC 49226, FA1090, WHO G, WHO L, WHO K, H041, WHO Z, and WHO Q). ATCC 49226, FA1090, WHO G, and WHO L produce wild type or wild-type like PBP2. WHO K, H041, WHO Z, and WHO Q produce mosaic PBP2. Liquid broth-based assays were used for antibacterial testing of PBP inhibitors in Neisseria gonorrhoeae. Briefly, cryo-preserved bacterial cultures of clinical strains were streaked for isolation on Chocolate Agar (72 g/L (2×) GC Agar Base (BD #228950) and 2% (2×) Hemoglobin was autoclaved at 121° C. for 20 minutes to sterilize. Once cooled to ˜50° C. the 2× GC Agar Base and 2× Hemoglobin solutions are combined and 1% IsoVitaleX Enrichment (BD #211876) was added to the solution). Strains were incubated at 36° C. and 5% CO2 to allow growth of colonies, 24 hours before inoculum preparation. 2-fold serial dilutions of test compounds were conducted in a 96 well plate with a final volume of 75 μL per well at 2-fold the final desired concentration in Fastidious broth (Remel #R07664). For preparation of assay inoculum, a direct suspension was prepared by aseptically swabbing all colonies from agar plates into culture tubes containing 2 mL of fresh sterile saline. After the dilution plates were set up, direct suspensions were then diluted in a cuvette containing sterile saline and the optical density was measured at 600 nm. Inocula were diluted such that 75 μL of this culture in Fastidious broth results in a starting bacterial concentration of 5×10^5 CFU/mL when added to the dilution plates. The plates were incubated for ˜24 hours at 36° C. and 5% CO2. The MIC was read visually as the lowest concentration well with <10% bacterial growth compared to wells of full growth.
# N. gonorrhoeae WHO Z = test: Liquid broth MIC in Fastidious broth; type: cell-based; conditions: Neisseria gonorrhoeae, read-out: Minimum Inhibitory Concentration, N. gonorrhoeae WHO Z
# Method: as §2, §3
# N. gonorrhoeae H041 = test: Liquid broth MIC in Fastidious broth; type: cell-based; conditions: Neisseria gonorrhoeae, H041, read-out: Minimum Inhibitory Concentration, N. gonorrhoeae H041
# Method: as §2, §3
# N. gonorrhoeae WHO K = test: Liquid broth MIC in Fastidious broth; type: cell-based; conditions: Neisseria gonorrhoeae, read-out: Minimum Inhibitory Concentration, N. gonorrhoeae WHO K
# Method: as §2, §3
# N. gonorrhoeae WHO L = test: Liquid broth MIC in Fastidious broth; type: cell-based; conditions: Neisseria gonorrhoeae; N. gonorrhoeae strain WHO L; Fastidious broth; read-out: Minimum Inhibitory Concentration, N. gonorrhoeae WHO L
# Method: as §2, §3
# N. gonorrhoeae WHO G = test: Liquid broth MIC in Fastidious broth; type: cell-based; conditions: Neisseria gonorrhoeae; N. gonorrhoeae strain WHO G; Fastidious broth; read-out: Minimum Inhibitory Concentration, N. gonorrhoeae WHO G
# Method: as §2, §3
# N. gonorrhoeae FA1090 = test: Liquid broth MIC in Fastidious broth; type: cell-based; conditions: Neisseria gonorrhoeae; N. gonorrhoeae strain FA1090; Fastidious broth; read-out: Minimum Inhibitory Concentration, N. gonorrhoeae FA1090
# Method: as §2, §3
# T1 sequence (P0AD68 1-577): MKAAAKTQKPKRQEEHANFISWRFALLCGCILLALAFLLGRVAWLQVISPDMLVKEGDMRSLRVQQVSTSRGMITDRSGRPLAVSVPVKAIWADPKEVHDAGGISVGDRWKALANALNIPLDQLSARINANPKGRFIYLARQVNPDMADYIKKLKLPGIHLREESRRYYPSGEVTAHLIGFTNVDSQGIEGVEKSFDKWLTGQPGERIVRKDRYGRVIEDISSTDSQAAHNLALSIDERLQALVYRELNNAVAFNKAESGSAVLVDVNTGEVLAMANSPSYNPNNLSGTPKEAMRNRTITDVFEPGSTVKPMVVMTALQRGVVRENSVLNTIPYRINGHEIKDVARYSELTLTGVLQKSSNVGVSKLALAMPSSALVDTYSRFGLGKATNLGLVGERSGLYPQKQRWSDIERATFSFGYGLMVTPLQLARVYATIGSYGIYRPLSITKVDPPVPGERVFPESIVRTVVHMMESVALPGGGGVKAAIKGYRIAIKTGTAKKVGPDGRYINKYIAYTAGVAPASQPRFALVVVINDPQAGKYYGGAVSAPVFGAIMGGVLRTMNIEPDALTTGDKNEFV
# T2 sequence (G3XD46 whole entry): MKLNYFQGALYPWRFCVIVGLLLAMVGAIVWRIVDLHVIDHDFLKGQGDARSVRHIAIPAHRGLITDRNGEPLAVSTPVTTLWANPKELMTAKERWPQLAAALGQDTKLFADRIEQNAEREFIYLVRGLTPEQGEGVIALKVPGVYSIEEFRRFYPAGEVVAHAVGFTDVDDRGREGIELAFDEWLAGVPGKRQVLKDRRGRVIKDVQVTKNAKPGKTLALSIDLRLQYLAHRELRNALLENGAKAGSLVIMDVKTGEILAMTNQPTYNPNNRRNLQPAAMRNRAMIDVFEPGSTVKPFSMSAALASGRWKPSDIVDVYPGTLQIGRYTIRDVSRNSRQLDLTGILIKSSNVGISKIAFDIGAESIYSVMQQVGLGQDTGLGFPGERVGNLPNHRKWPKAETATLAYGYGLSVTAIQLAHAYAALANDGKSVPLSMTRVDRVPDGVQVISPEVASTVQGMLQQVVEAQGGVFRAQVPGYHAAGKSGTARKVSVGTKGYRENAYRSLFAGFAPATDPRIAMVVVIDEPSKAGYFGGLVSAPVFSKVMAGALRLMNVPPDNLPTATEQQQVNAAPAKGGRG
smiles,measurement,setting,value
"C[C@H]1CN(CCF)C(=O)C(=O)N1C(=O)NC(C(=O)N[C@H]1Cc2cccc(C(=O)O)c2OB1O)c1c(F)cc(O)cc1F (stereo partly drawn) [Example 233, (3R)-3-(2-(2,6-difluoro-4-hydroxyphenyl)-2-((S)-4-(2-fluoroethyl)-6-methyl-2,3-dioxopiperazine-1-carboxamido)acetamido)-2-hydroxy-3,4-dihydro-2H-benzo[e][1,2]oxaborinine-8-carboxylic acid]",MIC,E. coli 901C,32 to 64 µg/mL
same,MIC,[1],< 0.25 µg/mL
same,MIC,E. coli D22,32 to 64 µg/mL
same,MIC,P. aeruginosa ATCC 27853,> 128 µg/mL
same,MIC,[2],> 128 µg/mL
same,MIC,P. aeruginosa ATCC 35151,8 to 16 µg/mL
same,MIC,E. coli ATCC 25922,8 to 16 µg/mL
same,MIC,A. baumannii ATCC 19606,> 128 µg/mL
same,MIC,E. coli AG100A,32 to 64 µg/mL
same,MIC,[3],8 to 16 µg/mL
same,MIC,[4],2 to 4 µg/mL
same,MIC,E. coli AG100,32 to 64 µg/mL
same,EC50,E. coli K12 PBP3,< 30 µM
same,P. aeruginosa PBP3 Potency,P. aeruginosa PBP3,D (D represents a potency <10 μM)
"CC(C)(C)[C@@H](NC(=O)c1c(F)cc(O)c(O)c1Cl)C(=O)N[C@H]1Cc2ccc(F)c(C(=O)O)c2OB1O [Example 12, (R)-3-((R)-2-(2-chloro-6-fluoro-3,4-dihydroxybenzamido)-3,3-dimethylbutanamido)-7-fluoro-2-hydroxy-3,4-dihydro-2H-benzo[e][1,2]oxaborinine-8-carboxylic acid]",MIC,[5],> 64 µg/mL
same,MIC,N. gonorrhoeae WHO Z,> 64 µg/mL
same,MIC,N. gonorrhoeae H041,> 64 µg/mL
same,MIC,N. gonorrhoeae WHO K,> 64 µg/mL
same,MIC,N. gonorrhoeae WHO L,> 64 µg/mL
same,MIC,N. gonorrhoeae WHO G,> 64 µg/mL
same,MIC,N. gonorrhoeae FA1090,> 64 µg/mL
same,EC50,E. coli K12 PBP3,30 to 500 µM
